In Sander's compilation of Henry's law constants:
Several values for one entry are separate records, joined by “and”; a condition that tells them apart may be missing. Equal entries are not always repeated.

Columns and labels:
[1] = Henry solubility constant Hcp at 298.15 K (mol/(m3 Pa))
[2] = Henry solubility constant Hcp at 284 K (mol/(m3 Pa)); settings: reference: George et al. (1994b)
[3] = Henry solubility constant Hcp at 278 K (mol/(m3 Pa)); settings: reference: De Bruyn et al. (1995a)
[4] = Henry solubility constant Hcp at 313 K (mol/(m3 Pa)); settings: reference: Vitenberg et al. (1974)
[5] = Henry solubility constant Hcp at 301 K (mol/(m3 Pa)); settings: reference: Nelson and Hoff (1968)
[6] = Henry solubility constant Hcp at 293 K (mol/(m3 Pa))
[7] = Henry solubility constant Hcp at 283 K (mol/(m3 Pa))
[8] = Henry solubility constant Hcp at 333 K (mol/(m3 Pa)); settings: reference: Severit (1997)
[9] = Henry solubility constant Hcp at 308 K (mol/(m3 Pa)); settings: reference: Guo and Brimblecombe (2007)
[10] = Henry solubility constant Hcp at 311 K (mol/(m3 Pa)); settings: reference: Grollman (1929)
[11] = Henry solubility constant Hcp at 288 K (mol/(m3 Pa)); settings: reference: Billitzer (1902)
[12] = Henry solubility constant Hcp at 353 K (mol/(m3 Pa)); settings: reference: St-Pierre et al. (2014)
[13] = Henry solubility constant Hcp at 323 K (mol/(m3 Pa)); settings: reference: Dallos et al. (1983)
[14] = Henry solubility constant Hcp at 297 K (mol/(m3 Pa)); settings: reference: Nozière and Riemer (2003)
[15] = Henry solubility constant Hcp at 303 K (mol/(m3 Pa)); settings: reference: Richon et al. (1985)
[16] = Henry solubility constant Hcp at 275 K (mol/(m3 Pa)); settings: reference: Katrib et al. (2001)
[17] = Henry solubility constant Hcp at 290 K (mol/(m3 Pa)); settings: reference: Disselkamp et al. (1999)
[18] = Henry solubility constant Hcp at 310 K (mol/(m3 Pa)); settings: reference: Power and Stegall (1970)
[19] = Henry solubility constant Hcp at 273 K (mol/(m3 Pa)); settings: reference: Razumovskii and Zaikov (1971)
[20] = Henry solubility constant Hcp at 287 K (mol/(m3 Pa)); settings: reference: Hempel (1901)
[21] = reference: Mirabel et al. (1996)
[22] = reference: Straver and de Loos (2005)
[23] = reference: Vitenberg et al. (1974)
[24] = reference: Morrison and Billett (1952)
[25] = reference: Orcutt and Seevers (1937a)

O=C(F)C(F)(F)F [trifluoroacetylfluoride]
Henry solubility constant Hcp [1, 21]: 0.03 | Henry solubility constant Hcp at 284 K [2]: 0.03 | Henry solubility constant Hcp at 278 K [3]: 0.0095

CCCC(C)=O [2-pentanone]
Henry solubility constant Hcp ([1]; reference: Chai et al. (2005)): 0.1 | Henry solubility constant Hcp ([1]; reference: Hawthorne et al. (1985)): 0.09 | Henry solubility constant Hcp ([1]; reference: Hovorka et al. (2019)): 0.13 | Henry solubility constant Hcp ([1]; reference: Ji and Evans (2007)): 0.16 | Henry solubility constant Hcp ([1]; reference: Kim et al. (2000)): 0.11 | Henry solubility constant Hcp [1, 22]: 0.086 | Henry solubility constant Hcp [1, 23]: 0.17 | Henry solubility constant Hcp at 313 K [4]: 0.11 | Henry solubility constant Hcp at 301 K [5]: 0.092

CC(=O)OO[N+](=O)[O-] [peroxyacetyl nitrate]
Henry solubility constant Hcp ([1]; reference: Easterbrook et al. (2023)): 0.03 | Henry solubility constant Hcp ([1]; reference: Frenzel et al. (2000)): 0.023 | Henry solubility constant Hcp ([1]; reference: Kames et al. (1991)): 0.028 | Henry solubility constant Hcp at 293 K ([6]; reference: Kames and Schurath (1995)): 0.04 | Henry solubility constant Hcp at 283 K ([7]; reference: Holdren et al. (1984)): 0.049

C=CCl [chloroethene]
Henry solubility constant Hcp ([1]; reference: Chen et al. (2012)): 0.00041 | Henry solubility constant Hcp ([1]; reference: Gossett (1987)): 0.00037 | Henry solubility constant Hcp at 283 K ([7]; reference: Pearson and McConnell (1975)): 8.5e-06

[Cl][Hg][Cl] [mercury dichloride]
Henry solubility constant Hcp at 333 K [8]: 1000

O=[N+]([O-])c1ccc(O)cc1 [4-nitrophenol]
Henry solubility constant Hcp at 308 K [9]: 210

O=C(Cl)C(F)(F)F [trifluoroacetylchloride]
Henry solubility constant Hcp [1, 21]: 0.02 | Henry solubility constant Hcp at 284 K [2]: 0.02 | Henry solubility constant Hcp at 278 K [3]: 0.0027

O=[N+]([O-])c1cccc(O)c1 [3-nitrophenol]
Henry solubility constant Hcp at 308 K [9]: 160

C=C [ethene]
Henry solubility constant Hcp at 311 K [10]: 3.4e-05 | Henry solubility constant Hcp ([1]; reference: Maaßen (1995)): 4.9e-05 | Henry solubility constant Hcp [1, 24]: 4.7e-05 | Henry solubility constant Hcp [1, 25]: 4.8e-05 | Henry solubility constant Hcp ([1]; reference: Reichl (1995)): 4.8e-05 | Henry solubility constant Hcp ([1]; reference: Winkler (1906)): 4.8e-05

C#C [ethyne]
Henry solubility constant Hcp at 311 K [10]: 0.00033 | Henry solubility constant Hcp ([1]; reference: Gatterer (1926)): 0.00042 | Henry solubility constant Hcp ([1]; reference: Jadkar and Chaudhari (1980)): 0.0004 | Henry solubility constant Hcp ([1]; reference: Kremann and Hönel (1913)): 0.00037 | Henry solubility constant Hcp ([1]; reference: Maillard and Rosenthal (1952)): 0.00025 | Henry solubility constant Hcp ([1]; reference: Winkler (1906)): 0.00041 | Henry solubility constant Hcp at 288 K [11]: 0.00051

O=S=O [sulfur dioxide]
Henry solubility constant Hcp ([1]; reference: Johnstone and Leppla (1934)): 0.012 | Henry solubility constant Hcp ([1]; reference: Schoenfeld (1855)): 0.014 | Henry solubility constant Hcp at 353 K [12]: 0.4

Nc1ccccc1 [aminobenzene]
Henry solubility constant Hcp ([1]; reference: Jayasinghe et al. (1992)): 5 | Henry solubility constant Hcp at 283 K ([7]; reference: Heal et al. (1995)): 1.2 | Henry solubility constant Hcp at 323 K [13]: 1.1

CC(C)=O [propanone]
Henry solubility constant Hcp ([1]; reference: Benkelberg et al. (1995)): 0.27 | Henry solubility constant Hcp ([1]; reference: Betterton (1991)): 0.32 | Henry solubility constant Hcp ([1]; reference: Burnett (1963)): 0.28 | Henry solubility constant Hcp ([1]; reference: Chai et al. (2005)): 0.24 | Henry solubility constant Hcp ([1]; reference: Ioffe et al. (1984)): 0.2 | Henry solubility constant Hcp ([1]; reference: Ji and Evans (2007)): 0.26 | Henry solubility constant Hcp ([1]; reference: Lichtenbelt and Schram (1985)): 0.26 | Henry solubility constant Hcp ([1]; reference: Poulain et al. (2010)): 0.29 | Henry solubility constant Hcp ([1]; reference: Schoene and Steinhanses (1985)): 0.32 | Henry solubility constant Hcp ([1]; reference: Snider and Dawson (1985)): 0.25 | Henry solubility constant Hcp [1, 22]: 0.24 | Henry solubility constant Hcp ([1]; reference: Strekowski and George (2005)): 0.26 | Henry solubility constant Hcp [1, 23]: 0.25 and 0.32 | Henry solubility constant Hcp ([1]; reference: Vitenberg et al. (1975)): 0.25 | Henry solubility constant Hcp at 297 K [14]: 0.27 | Henry solubility constant Hcp at 293 K ([6]; reference: Yu (1992)): 0.17 | Henry solubility constant Hcp at 303 K [15]: 0.19 | Henry solubility constant Hcp at 301 K [5]: 0.31

ClBr [bromine chloride]
Henry solubility constant Hcp at 275 K [16]: < 0.062 | Henry solubility constant Hcp ([1]; reference: Bartlett and Margerum (1999)): 0.0093 | Henry solubility constant Hcp at 290 K [17]: 0.015

O=O [oxygen]
Henry solubility constant Hcp ([1]; reference: Benson et al. (1979)): 1.3e-05 | Henry solubility constant Hcp ([1]; reference: Bohr and Bock (1891)): 1.3e-05 | Henry solubility constant Hcp ([1]; reference: Bunsen (1855a)): 1.2e-05 | Henry solubility constant Hcp ([1]; reference: Carpenter (1966)): 1.2e-05 | Henry solubility constant Hcp ([1]; reference: Cosgrove and Walkley (1981)): 1.3e-05 | Henry solubility constant Hcp ([1]; reference: Cramer (1980)): 1.3e-05 | Henry solubility constant Hcp ([1]; reference: Fox (1909)): 1.3e-05 | Henry solubility constant Hcp ([1]; reference: Geffcken (1904)): 1.2e-05 | Henry solubility constant Hcp ([1]; reference: Millero et al. (2002a)): 1.2e-05 | Henry solubility constant Hcp ([1]; reference: Millero et al. (2002b)): 1.2e-05 | Henry solubility constant Hcp [1, 24]: 1.3e-05 | Henry solubility constant Hcp ([1]; reference: Murray and Riley (1969)): 1.3e-05 | Henry solubility constant Hcp [1, 25]: 1.2e-05 | Henry solubility constant Hcp ([1]; reference: Rettich et al. (1981)): 1.3e-05 | Henry solubility constant Hcp ([1]; reference: Rettich et al. (2000)): 1.3e-05 | Henry solubility constant Hcp ([1]; reference: Sherwood et al. (1991)): 1.3e-05 | Henry solubility constant Hcp ([1]; reference: Shoor et al. (1969)): 1.2e-05 | Henry solubility constant Hcp ([1]; reference: Timofejew (1890)): 1.2e-05 | Henry solubility constant Hcp ([1]; reference: Winkler (1891b)): 1.3e-05 | Henry solubility constant Hcp at 310 K [18]: 1.1e-05 | Henry solubility constant Hcp at 293 K ([6]; reference: da Silva et al. (1980)): 1.2e-05 | Henry solubility constant Hcp at 273 K [19]: 0.00014

O=C=S [carbon oxide sulfide]
Henry solubility constant Hcp at 287 K [20]: 0.00034 | Henry solubility constant Hcp ([1]; reference: De Bruyn et al. (1995b)): 0.00022 | Henry solubility constant Hcp ([1]; reference: Stock and Kuß (1917)): 0.00024 | Henry solubility constant Hcp ([1]; reference: Winkler (1906)): 0.00021 | Henry solubility constant Hcp ([1]; reference: Winkler (1907)): 0.00021
